The values below come from patent US11229707B2, “Promoting immune responses” (National Institute of Biological Sciences, Beijing, priority 2018, dated 2022).

Each structure is given as a SMILES string. Like-named read-outs stand apart in the source and are kept apart here.

The target of one data set is alpha-kinase 1 (ALPK1) (Homo sapiens, UniProt Q96QP1). Description: ALPK1 activation (kinase domain phosphorylation of TIFA). The class given is biochemical.
Data set [1] deals with innate immune responses in mice. Kind of data set: Mouse dorsal air pouch model of acute inflammation (neutrophil recruitment, multiplex immunoassay for 36 cytokines). It counts as in vivo. The settings on record: for proinflammatory cytokines and chemokines in air pouches (IL-6, TNFα, IP-10, MCP-1/3, IFNγ, GM-CSF, MIP-1α and β, RANTES): air-pouch washes, compared with saline control; for neutrophil recruitment into the air pouch: injection into air pouch; for level of GRO-α/KC/CXCL1, IP-10 and MCP-1 in the sera: sera of injected mice. An excerpt: To investigate whether ADP-Hep alone could stimulate innate immune responses in vivo, a mouse dorsal air pouch model established to assess acute inflammation was employed (Gaudet et al. Science 348, 1251-1255 (2015).
We then performed a multiplex immunoassay for 36 cytokines in both the air-pouch washes and the sera of injected mice. […] Thus, ADP-Hep but not HBP alone can potently activate innate immune responses in mice.
To confirm that 1-ADP-heptoses and 1-ADP-heptose-7-phosphates can stimulate innate immune responses in vivo, a mouse dorsal air pouch model established to assess acute inflammation was employed (Gaudet, et al. Science 348, 1251-1255 (2015).
Injection of 1-ADP-heptoses and 1-ADP-heptose-7-phosphates into the air pouch induces neutrophil recruitment into the pouch. […] 1-ADP-heptoses and 1-ADP-heptose-7-phosphates also increase the level of keratinocyte-derived chemokine (GRO-a/KC/CXCL1), IP-10 and MCP-1 in the sera.

For data set [2], the system named is ovalbumin (OVA)-specific IgG. Description: Adjuvant activity in vivo: OVA immunization, serum OVA-specific IgG by ELISA. The conditions noted are these: C57BL/6N mice, intramuscular, 10 μg OVA mixed with 0.5 mg/mouse; after 21 days. On the procedure:
FIG. 1C. […] C57BL/6N mice (8 mice per group) were immunized intramuscularly with 10 μg OVA mixed with PBS, alum (2 mg/mouse), or ADP-heptose (0.5 mg/mouse). After 21 days, serum titers of OVA-specific IgG were measured by ELISA.
For orientation: An ELISA detects its analyte on a solid surface through an enzyme-linked reagent.

Data set [3] deals with MC38 colorectal adenocarcinoma cells. Kind of data set: MC38 tumor growth, posttumor treatment with checkpoint blockade. The class given is in vivo, C57BL/6N mice. The conditions noted are these: 0.5 mg/mouse intratumor combined with anti-PD-1 antibody 40 ug/mouse intraperitoneal, day 13-28. How it is done: FIG. 1F. […] C57BL/6N mice (n=6 mice per group) were injected subcutaneously with 2×10^5 MC38 colorectal adenocarcinoma cells on day 0. ADP-heptose (0.5 mg/mouse, intratumor injection) and anti-PD-1 antibody (40 ug/mouse, intraperitoneal injection) was administered on day 13, 16, 19, 22, 25, and 28 after tumor inoculation.

Another data set relates to B16-OVA melanoma cells. Kind of data set: B16-OVA tumor growth, posttumor intratumor treatment. The class given is in vivo, C57BL/6N mice. The settings on record: 0.5 mg/mouse intratumor injection on day 8, 11, 14, 17. On the procedure: FIG. 1D and FIG. 1E. […] C57BL/6N mice (n=6 mice per group) were injected subcutaneously with 2×10^5 B16-OVA melanoma cells on day 0. ADP-heptose (0.5 mg/mouse) was administered on day 8, 11, 14, and 17 after tumor inoculation by intratumor injection. Tumor volume (D) and tumor weight (E).

In data set [4] the test system is THP-1 and 293T cells. Description: Host cytosol entry, NF-kB activation and cytokine induction in THP-1 and 293T cells. The conditions noted are these: for cytokines induction (such as interleukin-8): THP-1 and 293T cells, compound added on its own.
The target of data set [5] is ALPK1 N-terminal domain (NTD) (Homo sapiens, UniProt Q96QP1). Kind of data set: Direct binding to ALPK1 N-terminal domain.
For the next data set, the system named is TIFA. Description: TIFA phosphorylation in 293T cells stably expressing EGFP-TIFA, anti-pT9-TIFA immunoblot. It counts as cell-based. The settings on record: 5 μM for 5 hours. How it is done:
FIG. 1B. […] 293T cells stably expressing EGFP-TIFA were treated with ADP-heptose analogs (5 μM) for 5 hours, and analyzed by anti-pT9-TIFA immunoblot.
In general terms: A western blot detects proteins with antibodies after separation by electrophoresis.

For the next data set, the system named is NF-κB in 293T cells. Kind of data set: NF-κB activation in 293T cells, luciferase reporter activity. The class given is cell-based.
Data set [6] deals with THP-1 and 293T cells.

alpha-kinase 1 (ALPK1), sequence (Q96QP1 whole entry, the tested form may be a part): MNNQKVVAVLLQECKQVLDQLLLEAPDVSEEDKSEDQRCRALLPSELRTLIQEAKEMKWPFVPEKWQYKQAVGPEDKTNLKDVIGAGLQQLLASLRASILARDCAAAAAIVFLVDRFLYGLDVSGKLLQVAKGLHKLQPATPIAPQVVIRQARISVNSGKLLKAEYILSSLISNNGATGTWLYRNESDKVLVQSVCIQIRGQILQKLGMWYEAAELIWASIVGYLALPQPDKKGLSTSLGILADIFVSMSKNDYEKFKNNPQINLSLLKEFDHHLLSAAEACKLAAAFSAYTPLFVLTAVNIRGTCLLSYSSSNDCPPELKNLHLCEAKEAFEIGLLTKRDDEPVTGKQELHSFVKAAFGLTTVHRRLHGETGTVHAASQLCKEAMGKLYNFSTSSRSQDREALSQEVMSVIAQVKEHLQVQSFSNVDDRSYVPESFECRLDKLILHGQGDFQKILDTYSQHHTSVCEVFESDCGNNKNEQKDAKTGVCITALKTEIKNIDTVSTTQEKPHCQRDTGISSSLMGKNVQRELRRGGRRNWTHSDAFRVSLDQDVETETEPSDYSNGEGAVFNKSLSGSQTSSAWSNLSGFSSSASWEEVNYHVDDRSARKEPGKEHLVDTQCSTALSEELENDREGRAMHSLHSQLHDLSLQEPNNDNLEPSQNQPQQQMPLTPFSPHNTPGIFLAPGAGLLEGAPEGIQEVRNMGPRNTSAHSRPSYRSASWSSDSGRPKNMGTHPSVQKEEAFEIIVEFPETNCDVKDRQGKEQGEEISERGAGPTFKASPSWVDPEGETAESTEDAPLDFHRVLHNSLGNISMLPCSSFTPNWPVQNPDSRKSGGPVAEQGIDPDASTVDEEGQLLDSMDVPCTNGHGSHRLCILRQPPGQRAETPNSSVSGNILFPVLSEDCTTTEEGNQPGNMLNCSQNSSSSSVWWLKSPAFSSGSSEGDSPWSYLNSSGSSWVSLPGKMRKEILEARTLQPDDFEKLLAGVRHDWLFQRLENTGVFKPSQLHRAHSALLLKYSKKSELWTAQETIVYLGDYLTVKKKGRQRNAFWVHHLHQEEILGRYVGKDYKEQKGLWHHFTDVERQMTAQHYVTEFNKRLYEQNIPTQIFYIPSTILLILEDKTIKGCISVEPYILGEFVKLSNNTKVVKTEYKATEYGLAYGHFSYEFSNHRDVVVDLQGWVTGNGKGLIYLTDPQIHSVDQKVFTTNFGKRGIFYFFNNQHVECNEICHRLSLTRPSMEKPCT
ALPK1 N-terminal domain (NTD), sequence (Q96QP1 1-473 limits assumed): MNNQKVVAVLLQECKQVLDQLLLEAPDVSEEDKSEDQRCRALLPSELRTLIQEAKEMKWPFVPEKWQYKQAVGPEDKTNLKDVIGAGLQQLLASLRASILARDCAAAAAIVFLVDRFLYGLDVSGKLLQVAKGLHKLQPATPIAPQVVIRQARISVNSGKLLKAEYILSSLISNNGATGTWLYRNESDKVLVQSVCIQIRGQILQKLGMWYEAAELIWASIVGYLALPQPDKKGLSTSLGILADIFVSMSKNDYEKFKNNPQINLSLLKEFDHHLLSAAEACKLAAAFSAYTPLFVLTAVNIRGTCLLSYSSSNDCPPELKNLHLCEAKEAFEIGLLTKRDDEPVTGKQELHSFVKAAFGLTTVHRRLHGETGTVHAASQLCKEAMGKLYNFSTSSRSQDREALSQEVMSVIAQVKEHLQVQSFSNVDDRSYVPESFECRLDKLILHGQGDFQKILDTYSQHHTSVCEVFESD

Consider `Nc1ncnc2c1ncn2C1OC(COP(=O)(O)OP(=O)(O)OC2OC(C(O)COP(=O)(O)O)C(O)C(O)C2O)C(O)C1O` (stereo not shown) [ADP-Heptose 7-P], for which, at alpha-kinase 1 (ALPK1), the ALPK1 activation entry was “ALPK1 activation-competent”.

Consider `Nc1ncnc2c1ncn2[C@@H]1O[C@H](COP(=O)(O)OP(=O)(O)O[C@@H]2O[C@H]([C@@H](O)CO)[C@@H](O)[C@H](O)[C@@H]2O)[C@@H](O)[C@H]1O` [ADP-LD-Hep], for which, in [1], the “proinflammatory cytokines and chemokines in air pouches (IL-6, TNFα, IP-10, MCP-1/3, IFNγ, GM-CSF, MIP-1α and β, RANTES)” value is reported as “highly elevated”; the “neutrophil recruitment into the air pouch” value is “induced massive neutrophil recruitment into the pouch”; the “level of GRO-α/KC/CXCL1, IP-10 and MCP-1 in the sera” value was “increased the level”.

As for `Nc1ncnc2c1ncn2[C@@H]1O[C@H](COP(=O)(O)OP(=O)(O)O[C@@H]2O[C@H]([C@H](O)CO)[C@@H](O)[C@H](O)[C@@H]2O)[C@@H](O)[C@H]1O` [ADP-heptose, 1-ADP-β-D-manno-Heptose], the “serum ovalbumin (OVA)-specific IgG production (adjuvant activity)” value in [2] is “exhibited adjuvant activity in vivo to elevate the serum ovalbumin (OVA)-specific IgG production”. Moreover, in [3], the MC38 tumor growth result is “Inhibition of MC38 tumor growth”. The “B16-OVA tumor growth (tumor volume, tumor weight)” value in the data set on B16-OVA melanoma cells is given as “Inhibition of B16-OVA tumor growth”. For the same compound, the “cytokines induction (such as interleukin-8)” value with THP-1 and 293T cells [4] is given as “cytokines induction”. Besides, the “entry into host cytosol on its own” value in the data set on THP-1 and 293T cells [4] (host cells) is “could enter host cytosol on its own”. Moreover, the “inflammatory responses in mice after injection” value in [1] (mice, Alpk1-dependent) is recorded as “induces robust inflammatory responses in mice”. For the same compound, at alpha-kinase 1 (ALPK1), the ALPK1 activation result was “stimulates the NTD-bound C-terminal kinase domain to phosphorylate TIFA and induce its oligomerization”. In addition, the “direct binding to ALPK1 N-terminal domain” value in [5] is reported as “directly binds”. Further, the “TIFA phosphorylation (anti-pT9-TIFA immunoblot)” value (“TIFA phosphorylation” for short) in the data set on TIFA was “induced TIFA phosphorylation”. Moreover, the “NF-κB activation (luciferase reporter activity)” value in the data set with NF-κB in 293T cells was “activated NF-κB in 293T cells in a dose-dependent manner”.

Regarding `Nc1ccn(C2OC(COP(=O)(O)OP(=O)(O)OC3OC(C(O)CO)C(O)C(O)C3O)C(O)C2O)c(=O)n1` (stereo not shown) [CDP-heptose], the “TIFA phosphorylation” value in the data set with TIFA is “induce TIFA phosphorylation”. Moreover, the “NF-κB activation (luciferase reporter activity)” value in the data set on NF-κB in 293T cells is listed as “activated NF-κB in 293T cells in a dose-dependent manner”.

In the case of `Nc1nc2c(ncn2[C@@H]2O[C@H](COP(=O)(O)OP(=O)(O)O[C@H]3O[C@H]([C@H](O)CO)[C@@H](O)[C@H](O)[C@@H]3O)[C@@H](O)[C@H]2O)c(=O)[nH]1` [GDP-heptose], in the data set with TIFA, the “TIFA phosphorylation” value is “induce TIFA phosphorylation”. Besides, in the data set on NF-κB in 293T cells, the “NF-κB activation (luciferase reporter activity)” value is “activated NF-κB in 293T cells in a dose-dependent manner”.

Regarding `O=P(O)(O)OC[C@@H](O)[C@H]1O[C@@H](OP(=O)(O)O)[C@@H](O)[C@@H](O)[C@@H]1O` [HBP, D-glycero-β-D-manno Heptose 1,7-bisphosphate, reference compound], in the data set with THP-1 and 293T cells [4], the “cytokines induction (such as interleukin-8)” value was “not”. Besides, the NF-κB activation result in the data set with THP-1 and 293T cells [4] (transfected into host cells) is on record as “NF-κB activation observed”. In data set [1], the “proinflammatory cytokines and chemokines in air pouches (IL-6, TNFα, IP-10, MCP-1/3, IFNγ, GM-CSF, MIP-1α and β, RANTES)” value is “did not affect local and systemic productions”; the “neutrophil recruitment into the air pouch” value is on record as “failed to increase the number of air-pouch neutrophils”; the “level of GRO-α/KC/CXCL1, IP-10 and MCP-1 in the sera” value was “did not affect local and systemic productions”. Besides, in the data set with THP-1 and 293T cells [6], the “entry into host cytosol on its own” value was “cell-impermeable”.

For `O=c1ccn(C2OC(COP(=O)(O)OP(=O)(O)OC3OC(C(O)CO)C(O)C(O)C3O)C(O)C2O)c(=O)[nH]1` (stereo not shown) [UDP-heptose], the “TIFA phosphorylation” value in the data set with TIFA is “induce TIFA phosphorylation”. For the same compound, the “NF-κB activation (luciferase reporter activity)” value with NF-κB in 293T cells is “activated NF-κB in 293T cells in a dose-dependent manner”.

Consider `Nc1ncnc2c1ncn2C1CC(O)C(COP(=O)(O)OP(=O)(O)OC2OC(C(O)CO)C(O)C(O)C2O)O1` (stereo not shown) [dADP-heptose], for which the “TIFA phosphorylation” value in the data set on TIFA was “induce TIFA phosphorylation”. Besides, the “NF-κB activation (luciferase reporter activity)” value in the data set with NF-κB in 293T cells was “activated NF-κB in 293T cells in a dose-dependent manner”.

Turning to `Nc1ccn(C2CC(O)C(COP(=O)(O)OP(=O)(O)OC3OC(C(O)CO)C(O)C(O)C3O)O2)c(=O)n1` (stereo not shown) [dCDP-heptose], the “TIFA phosphorylation” value in the data set on TIFA is reported as “induce TIFA phosphorylation”. Also, the “NF-κB activation (luciferase reporter activity)” value with NF-κB in 293T cells is listed as “activated NF-κB in 293T cells in a dose-dependent manner”.

As to `Nc1nc2c(ncn2C2CC(O)C(COP(=O)(O)OP(=O)(O)OC3OC(C(O)CO)C(O)C(O)C3O)O2)c(=O)[nH]1` (stereo not shown) [dGDP-heptose], the “TIFA phosphorylation” value with TIFA was “induce TIFA phosphorylation”. Further, the “NF-κB activation (luciferase reporter activity)” value in the data set with NF-κB in 293T cells is recorded as “activated NF-κB in 293T cells in a dose-dependent manner”.

Turning to `Cc1cn(C2CC(O)C(COP(=O)(O)OP(=O)(O)OC3OC(C(O)CO)C(O)C(O)C3O)O2)c(=O)[nH]c1=O` (stereo not shown) [dTDP-heptose], the “TIFA phosphorylation” value with TIFA is “induce TIFA phosphorylation”. Besides, the “NF-κB activation (luciferase reporter activity)” value with NF-κB in 293T cells is on record as “activated NF-κB in 293T cells in a dose-dependent manner”.
